{"source": "patent US20260241012A1", "about": "“1,8-NAPHTHYRIDIN-2-ONE HETEROBIFUNCTIONAL BCL6 DEGRADERS” (Treeline Biosciences, Inc., priority 2022, published 2026)", "biological_target": "T1, N-terminal HiBiT tagged BCL6 (Homo sapiens, UniProt P41182)", "T1 construct": "expressed in transfected cells; host or cells: HT1080 (ATCC CCL-121), stably transduced with lentivirus pLV-UBC-N-HiBiT-BCL6-PGK-puro", "experiment": "HiBiT based degradation assay", "format": "cell-based", "details": "HT1080 cells expressing N-terminal HiBiT tagged BCL6, 5 hours of incubation; for Ymin (5 hr): BCL6 degradation normalized with DMSO control; for DC50: four-parameter logistic model, read-out: EC50 (5 hr)", "summary_of_the_method": "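Degradation measured by luminescence from the Nano-Glo HiBiT lytic reagent (15 min, room temperature), normalized to DMSO controls and fitted to a four-parameter curve.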", "data": [{"smiles": "CNC(=O)COc1cc2cc(Nc3nc(N4CCN(CC5CCN(c6cccc7c(C8CCC(=O)NC8=O)nn(C)c67)CC5)CC4)ncc3Cl)cnc2n(CC2CC2)c1=O", "note": "(stereo not shown) [Compound 157, 2-((6-((5-chloro-2-(4-((1-(3-(2,6-dioxopiperidin-3-yl)-1-methyl-1H-indazol-7-yl)piperidin-4-yl)methyl)piperazin-1-yl)pyrimidin-4-yl)amino)-1-(cyclopropylmethyl)-2-oxo-1,2-dihydro-1,8-naphthyridin-3-yl)oxy)-N-methylacetamide]", "values": [{"measurement": "Ymin (5 hr)", "result": "++++ (Ymin < 30%)"}, {"measurement": "DC50", "result": "10 to 100", "unit": "nM"}]}, {"smiles": "CNC(=O)COc1cc2cc(Nc3nc(N4CC[C@@H](CN5CCN(c6cccc7c(C8CCC(=O)NC8=O)nn(C)c67)CC5)[C@H](C)C4)ncc3Cl)cnc2n(C(C)C)c1=O", "note": "(stereo partly drawn) [Compound 177c, 2-[[6-[[5-chloro-2-[(3S,4R)-4-[[4-[3-(2,6-dioxo-3-piperidyl)-1-methyl-indazol-7-yl]piperazin-1-yl]methyl]-3-methyl-1-piperidyl]pyrimidin-4-yl]amino]-1-isopropyl-2-oxo-1,8-naphthyridin-3-yl]oxy]-N-methyl-acetamide]", "values": [{"measurement": "Ymin (5 hr)", "result": "+++ (30% ≤ Ymin < 50%)"}, {"measurement": "DC50", "result": "100 to 1000", "unit": "nM"}]}, {"smiles": "CNC(=O)COc1cc2cc(Nc3nc(N4CC5(CC[C@H](Oc6ccc7c(C8CCC(=O)NC8=O)nn(C)c7c6)[C@@H](C)C5)C4)ncc3Cl)cnc2n(C(C)C)c1=O", "note": "(relative stereo) [Compound 185c, 2-[[6-[[5-chloro-2-[(6S,7S)-7-[3-(2,6-dioxo-3-piperidyl)-1-methyl-indazol-6-yl]oxy-6-methyl-2-azaspiro[3.5]nonan-2-yl]pyrimidin-4-yl]amino]-1-isopropyl-2-oxo-1,8-naphthyridin-3-yl]oxy]-N-methyl-acetamide]", "values": [{"measurement": "Ymin (5 hr)", "result": "++++ (Ymin < 30%)"}, {"measurement": "DC50", "result": "< 10", "unit": "nM"}]}, {"smiles": "CNC(=O)COc1cc2cc(Nc3nc(N4CCC(CN5CCN(c6cccc7c(C8CCC(=O)NC8=O)nn(C)c67)CC5(C)C)CC4)ncc3Cl)cnc2n(C(C)C)c1=O", "note": "(stereo not shown) [Compound 200, 2-[[6-[[5-chloro-2-[4-[[4-[3-(2,6-dioxo-3-piperidyl)-1-methyl-indazol-7-yl]-2,2-dimethyl-piperazin-1-yl]methyl]-1-piperidyl]pyrimidin-4-yl]amino]-1-isopropyl-2-oxo-1,8-naphthyridin-3-yl]oxy]-N-methyl-acetamide]", "values": [{"measurement": "Ymin (5 hr)", "result": "+++ (30% ≤ Ymin < 50%)"}, {"measurement": "DC50", "result": "10 to 100", "unit": "nM"}]}, {"smiles": "CNC(=O)COc1cc2cc(Nc3nc(N4CCC(O)(CN5CCC(c6cccc7c(C8CCC(=O)NC8=O)nn(C)c67)CC5)CC4)ncc3Cl)cnc2n(C(C)C)c1=O", "note": "(stereo not shown) [Compound 203, 2-[[6-[[5-chloro-2-[4-[[4-[3-(2,6-dioxo-3-piperidyl)-1-methyl-indazol-7-yl]-1-piperidyl]methyl]-4-hydroxy-1-piperidyl]pyrimidin-4-yl]amino]-1-isopropyl-2-oxo-1,8-naphthyridin-3-yl]oxy]-N-methyl-acetamide]", "values": [{"measurement": "Ymin (5 hr)", "result": "++++ (Ymin < 30%)"}, {"measurement": "DC50", "result": "< 10", "unit": "nM"}]}, {"smiles": "CNC(=O)COc1cc2cc(Nc3nc(N4CCC(CN5CCN(c6ccc7c(C8CCC(=O)NC8=O)nn(C)c7c6)CC5)CC4)ncc3Cl)cnc2n(C)c1=O", "note": "(stereo not shown) [Compound 133, 2-((6-((5-chloro-2-(4-((4-(3-(2,6-dioxopiperidin-3-yl)-1-methyl-1H-indazol-6-yl)piperazin-1-yl)methyl)piperidin-1-yl)pyrimidin-4-yl)amino)-1-methyl-2-oxo-1,2-dihydro-1,8-naphthyridin-3-yl)oxy)-N-methylacetamide]", "values": [{"measurement": "Ymin (5 hr)", "result": "++++ (Ymin < 30%)"}, {"measurement": "DC50", "result": "< 10", "unit": "nM"}]}, {"smiles": "CNC(=O)COc1cc2cc(Nc3nc(N4CCC(CN5C6CCC5CC(c5cccc7c(C8CCC(=O)NC8=O)nn(C)c57)C6)CC4)ncc3Cl)cnc2n(C)c1=O", "note": "[Compound 143, 2-((6-((5-chloro-2-(4-(((1R,3s,5S)-3-(3-(2,6-dioxopiperidin-3-yl)-1-methyl-1H-indazol-7-yl)-8-azabicyclo[3.2.1]octan-8-yl)methyl)piperidin-1-yl)pyrimidin-4-yl)amino)-1-methyl-2-oxo-1,2-dihydro-1,8-naphthyridin-3-yl)oxy)-N-methylacetamide]", "values": [{"measurement": "Ymin (5 hr)", "result": "++++ (Ymin < 30%)"}, {"measurement": "DC50", "result": "< 10", "unit": "nM"}]}, {"smiles": "CNC(=O)COc1cc2cc(Nc3nc(N4CCN(CC5CCN(c6ccc7c(C8CCC(=O)NC8=O)nn(C)c7c6)CC5)CC4)ncc3Cl)cnc2n(C)c1=O", "note": "(stereo not shown) [Compound 107, 2-((6-((5-chloro-2-(4-((1-(3-(2,6-dioxopiperidin-3-yl)-1-methyl-1H-indazol-6-yl)piperidin-4-yl)methyl)piperazin-1-yl)pyrimidin-4-yl)amino)-1-methyl-2-oxo-1,2-dihydro-1,8-naphthyridin-3-yl)oxy)-N-methylacetamide]", "values": [{"measurement": "Ymin (5 hr)", "result": "+++ (30% ≤ Ymin < 50%)"}, {"measurement": "DC50", "result": "< 10", "unit": "nM"}]}, {"smiles": "CNC(=O)COc1cc2cc(Nc3nc(N4CCN(C(C)(C)C5CCN(c6ccc7c(C8CCC(=O)NC8=O)nn(C)c7c6)CC5)CC4)ncc3Cl)cnc2n(C(C)C)c1=O", "note": "(stereo not shown) [Compound 158, 2-((6-((5-chloro-2-(4-(2-(1-(3-(2,6-dioxopiperidin-3-yl)-1-methyl-1H-indazol-6-yl)piperidin-4-yl)propan-2-yl)piperazin-1-yl)pyrimidin-4-yl)amino)-1-isopropyl-2-oxo-1,2-dihydro-1,8-naphthyridin-3-yl)oxy)-N-methylacetamide]", "values": [{"measurement": "Ymin (5 hr)", "result": "++ (50% ≤ Ymin < 70%)"}, {"measurement": "DC50", "result": "< 10", "unit": "nM"}]}, {"smiles": "CNC(=O)COc1cc2cc(Nc3nc(N4CC[C@@H](CNc5cccc6c(C7CCC(=O)NC7=O)nn(C)c56)C4)ncc3Cl)cnc2n(C)c1=O", "note": "(stereo partly drawn) [Compound 122b, 2-((6-((5-chloro-2-((3S)-3-(((3-(2,6-dioxopiperidin-3-yl)-1-methyl-1H-indazol-7-yl)amino)methyl)pyrrolidin-1-yl)pyrimidin-4-yl)amino)-1-methyl-2-oxo-1,2-dihydro-1,8-naphthyridin-3-yl)oxy)-N-methylacetamide]", "values": [{"measurement": "Ymin (5 hr)", "result": "+++ (30% ≤ Ymin < 50%)"}, {"measurement": "DC50", "result": "10 to 100", "unit": "nM"}]}, {"smiles": "CNC(=O)COc1cc2cc(Nc3nc(N4CC[C@@H](CN5CCN(c6cccc7c(C8CCC(=O)NC8=O)nn(C)c67)CC5)[C@H](F)C4)ncc3Cl)cnc2n(C(C)C)c1=O", "note": "(relative stereo) [Compound 238a, 2-((6-((5-chloro-2-((3S,4S)-4-((4-(3-(2,6-dioxopiperidin-3-yl)-1-methyl-1H-indazol-7-yl)piperazin-1-yl)methyl)-3-fluoropiperidin-1-yl)pyrimidin-4-yl)amino)-1-isopropyl-2-oxo-1,2-dihydro-1,8-naphthyridin-3-yl)oxy)-N-methylacetamide]", "values": [{"measurement": "Ymin (5 hr)", "result": "++++ (Ymin < 30%)"}, {"measurement": "DC50", "result": "10 to 100", "unit": "nM"}]}, {"smiles": "CNC(=O)COc1cc2cc(Nc3nc(N4CCN(CC5CCN(c6cccc7c(C8CCC(=O)NC8=O)nn(C)c67)CC5(F)F)CC4)ncc3Cl)cnc2n(C(C)C)c1=O", "note": "(stereo not shown) [Compound 241, 2-((6-((5-chloro-2-(4-((1-(3-(2,6-dioxopiperidin-3-yl)-1-methyl-1H-indazol-7-yl)-3,3-difluoropiperidin-4-yl)methyl)piperazin-1-yl)pyrimidin-4-yl)amino)-1-isopropyl-2-oxo-1,2-dihydro-1,8-naphthyridin-3-yl)oxy)-N-methylacetamide]", "values": [{"measurement": "Ymin (5 hr)", "result": "++++ (Ymin < 30%)"}, {"measurement": "DC50", "result": "10 to 100", "unit": "nM"}]}, {"smiles": "CNC(=O)COc1cc2cc(Nc3nc(N4CCC(CN5CCCN(c6ccc7c(C8CCC(=O)NC8=O)nn(C)c7c6)CC5)CC4)ncc3Cl)cnc2n(C(C)C)c1=O", "note": "(stereo not shown) [Compound 235, 2-[[6-[[5-chloro-2-[4-[[4-[3-(2,6-dioxo-3-piperidyl)-1-methyl-indazol-6-yl]-1,4-diazepan-1-yl]methyl]-1-piperidyl]pyrimidin-4-yl]amino]-1-isopropyl-2-oxo-1,8-naphthyridin-3-yl]oxy]-N-methyl-acetamide]", "values": [{"measurement": "Ymin (5 hr)", "result": "+++ (30% ≤ Ymin < 50%)"}, {"measurement": "DC50", "result": "10 to 100", "unit": "nM"}]}, {"smiles": "CNC(=O)COc1cc2cc(Nc3nc(N4CC[C@@H](CN5CCC(c6ccc7c(C8CCC(=O)NC8=O)nn(C)c7c6)CC5)[C@@H](F)C4)ncc3Cl)cnc2n(C(C)C)c1=O", "note": "(relative stereo) [Compound 242b, 2-((6-((5-chloro-2-((3R,4S)-4-((4-(3-(2,6-dioxopiperidin-3-yl)-1-methyl-1H-indazol-6-yl)piperidin-1-yl)methyl)-3-fluoropiperidin-1-yl)pyrimidin-4-yl)amino)-1-isopropyl-2-oxo-1,2-dihydro-1,8-naphthyridin-3-yl)oxy)-N-methylacetamide]", "values": [{"measurement": "Ymin (5 hr)", "result": "++++ (Ymin < 30%)"}, {"measurement": "DC50", "result": "< 10", "unit": "nM"}]}, {"smiles": "CNC(=O)COc1cc2cc(Nc3nc(N4CC5(CCC(Nc6ccc7c(C8CCC(=O)NC8=O)nn(C)c7c6)CC5)C4)ncc3Cl)cnc2n(C)c1=O", "note": "(stereo not shown) [Compound 138, 2-((6-((5-chloro-2-(7-((3-(2,6-dioxopiperidin-3-yl)-1-methyl-1H-indazol-6-yl)amino)-2-azaspiro[3.5]nonan-2-yl)pyrimidin-4-yl)amino)-1-methyl-2-oxo-1,2-dihydro-1,8-naphthyridin-3-yl)oxy)-N-methylacetamide]", "values": [{"measurement": "Ymin (5 hr)", "result": "++++ (Ymin < 30%)"}, {"measurement": "DC50", "result": "< 10", "unit": "nM"}]}, {"smiles": "CNC(=O)COc1cc2cc(Nc3nc(N4CCN(CC5CCN(c6cccc7c6C(=O)N(C6CCC(=O)NC6=O)C7=O)CC5)CC4)ncc3Cl)cnc2n(C)c1=O", "note": "(stereo not shown) [Compound 102, 2-((6-((5-chloro-2-(4-((1-(2-(2,6-dioxopiperidin-3-yl)-1,3-dioxoisoindolin-4-yl)piperidin-4-yl)methyl)piperazin-1-yl)pyrimidin-4-yl)amino)-1-methyl-2-oxo-1,2-dihydro-1,8-naphthyridin-3-yl)oxy)-N-methylacetamide]", "values": [{"measurement": "Ymin (5 hr)", "result": "++++ (Ymin < 30%)"}, {"measurement": "DC50", "result": "10 to 100", "unit": "nM"}]}, {"smiles": "CNC(=O)COc1cc2cc(Nc3nc(N4CCN(CC5CCN(c6cccc7c(C8CCC(=O)NC8=O)nn(C)c67)CC5)[C@H](CO)C4)ncc3Cl)cnc2n(C(C)C)c1=O", "note": "(stereo partly drawn) [Compound 146a, 2-((6-((5-chloro-2-((3S)-4-((1-(3-(2,6-dioxopiperidin-3-yl)-1-methyl-1H-indazol-7-yl)piperidin-4-yl)methyl)-3-(hydroxymethyl)piperazin-1-yl)pyrimidin-4-yl)amino)-1-isopropyl-2-oxo-1,2-dihydro-1,8-naphthyridin-3-yl)oxy)-N-methylacetamide]", "values": [{"measurement": "Ymin (5 hr)", "result": "++++ (Ymin < 30%)"}, {"measurement": "DC50", "result": "10 to 100", "unit": "nM"}]}]}
